Data from PubChem BioAssay (NCI).
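Method: 48-hour compound exposure of cells in 96-well plates, five concentrations, linear interpolation of endpoints. Abbreviation: GI50, concentration required for 50% inhibition of growth. Definition used: TGI = concentration required for complete inhibition of growth.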

Tests used:
Experiment in all cases: NCI-60 cell line screen, 48 h
[1] = system: DLD-1 colon
[2] = system: SNB-78 CNS
[3] = system: KM20L2 colon
[4] = system: DMS 114 small cell lung
[5] = system: DMS 273 small cell lung
[6] = system: ACHN renal
[7] = system: LXFL 529 NSCLC
[8] = system: MCF7 breast
[9] = system: T-47D breast
[10] = system: MDA-MB-231 breast
[11] = system: DU-145 prostate
[12] = system: MDA-MB-435
[13] = system: PC-3 prostate
[14] = system: A549 NSCLC
[15] = system: CAKI-1 renal
[16] = system: NCI/ADR-RES ovarian
[17] = system: XF 498 CNS

Structure (SMILES)	TGI [1] [µM]	TGI [2] [µM]	TGI [3] [µM]	TGI [4] [µM]	TGI [5] [µM]	TGI [6] [µM]	TGI [7] [µM]	TGI [8] [µM]	TGI [9] [µM]	TGI [10] [µM]	TGI [11] [µM]	TGI [12] [µM]	TGI [13] [µM]	TGI [14] [µM]	TGI [15] [µM]	TGI [16] [µM]	TGI [17] [µM]	GI50 [3] [µM]	GI50 [4] [µM]	GI50 [17] [µM]
Cc1ccc(-c2cc(-c3ccco3)c(C#N)c(=O)n2C2OC(CO)C(O)C(O)C2O)cc1 (stereo unspecified)	> 100	> 100	> 100	> 100	> 100	> 100	> 100	–	–	–	–	–	–	–	–	–	–	–	–	–
CCOC(=O)C(OP(=O)(OCC)OCC)C(F)(F)F (stereo unspecified)	–	–	–	–	–	> 100	–	> 100	> 100	> 100	> 100	> 100	–	–	–	–	–	–	–	–
Cn1c(=O)c(Cl)c(N=[N+]=[N-])c2ccccc21	–	–	–	–	–	> 100	–	> 100	> 100	> 100	> 100	–	> 100	> 100	> 100	> 100	–	–	–	–
O=[N+]([O-])C(=C/c1cccs1)/C(=C\c1cccs1)[N+](=O)[O-]	–	–	–	–	–	2.68	–	7.72	7.74	0.864	3.53	2.23	–	9.59	1.41	5.4	–	–	–	–
O=C1c2ccccc2C(=O)N1CC(CN1C(=O)c2ccccc2C1=O)(C(=O)OCc1ccccc1)C(=O)OCc1ccccc1	–	–	–	–	–	–	–	–	> 100	> 100	> 100	> 100	> 100	–	> 100	> 100	–	–	–	–
C=CCCCCCCCCC(=O)O	163	607	268	389	289	–	–	452	–	–	–	–	–	214	214	558	30.9	–	–	–
COc1cccc2c1C(=O)c1c(O)c3c(c(O)c1C2=O)C[C@@](O)(C(=O)CO)CC3OC1CC(NCCCC(OC(C)=O)OC(C)=O)C(O)C(C)O1 (stereo partly specified)	–	–	0.167	0.000341	–	–	0.00872	–	–	–	–	–	–	–	–	–	–	< 0.0001	< 0.0001	0.0001
CCN1CCC(O)(c2ccc(O)cc2)C(C(=O)c2ccc(O)cc2)C1 (stereo unspecified)	–	–	–	–	–	34	–	10.9	32.9	31.1	60	33.3	–	–	–	71	–	–	–	–
